Source: article PMC7944940 (Dalton transactions (Cambridge, England : 2003), 2021)

Target: PAN endonuclease (Influenza A virus, UniProt C3W5S0)
Test: FRET-based enzymatic assay of PAN endonuclease inhibition
Type: biochemical

Row | Compound | IC50 (read-out: IC50 (dark)) | enzymatic inhibition upon light irradiation
1 | [Cl][Ru][Cl].c1ccc(-c2ccccn2)nc1.c1ccc(-c2ccccn2)nc1 [Compound 2, Ru(2,2´-bipyridine)2(Cl)2] | > 100 µM | –
2 | [Ru(2,2´-bipyridine)2(pyridine)2][Cl]2 [Compound 9] | – | negligible
